pIC50: −log10 of the molar value.
Columns and labels:
Human papillomavirus = assay: Antiviral activity against Human papillomavirus; format: functional, organism-based
Human alphaherpesvirus 1 = assay: Antiviral activity against Herpes simplex virus 1; format: functional, organism-based
Human alphaherpesvirus 2 = assay: Antiviral activity against Herpes simplex virus 2; format: functional, organism-based
[1] = system: Human immunodeficiency virus 1; assay: Antiviral activity against HIV1; format: functional, organism-based
[2] = system: Human immunodeficiency virus 2; assay: Antiviral activity against HIV2; format: functional, organism-based
Human betaherpesvirus 5 = assay: Antiviral activity against Human cytomegalovirus; format: functional, organism-based; conditions: Human betaherpesvirus 5
Vaccinia virus = assay: Antiviral activity against Vaccinia virus; format: functional, organism-based, Orthopoxvirus vaccinia; conditions: Orthopoxvirus vaccinia
Human alphaherpesvirus 3 = assay: Antiviral activity against Varicella zoster virus; format: functional, organism-based
Cowpox virus = assay: Antiviral activity against Cowpox virus; format: functional, organism-based
Hepatitis B virus = assay: Antiviral activity against Hepatitis B virus; format: functional, organism-based
Hepatitis C virus = assay: Antiviral activity against Hepatitis C virus; format: functional, organism-based, Hepacivirus hominis; conditions: Hepatitis C virus

Cc1cccc(CNC(=O)c2cccc(-c3ccc(S(=O)(=O)CC(=O)O)cc3)c2)c1C
pIC50 (Human papillomavirus): 8.04

Nc1nc(N)c(Cc2ccccc2)c(OCCOCP(=O)(O)O)n1
pIC50 (Human alphaherpesvirus 1; Human alphaherpesvirus 1): 8.92 | pIC50 (Human alphaherpesvirus 2; Human alphaherpesvirus 2): 9.18 | pIC50 [1]: 9.52 | pIC50 [2]: 9.52 | pIC50 (Human betaherpesvirus 5): 9.82 | pIC50 (Vaccinia virus): 8.92 | pIC50 (Human alphaherpesvirus 3): 9.82

O=C(O)CS(=O)(=O)c1ccc(-c2ccc(CC(=O)NCc3ccccc3)cc2)cc1
pIC50 (Human papillomavirus): 6.47

CCCCOC(=O)C[C@H](C)NP(=O)(COCCn1cnc2c(N)ncnc21)N[C@@H](C)C(=O)OCCCC (some centres not stated)
pIC50 (Cowpox virus): 5.00 | pIC50 (Vaccinia virus): 5.36

CC(C)OP(=O)(COCCSc1cc(N)nc(N)n1)OC(C)C
pIC50 (Human alphaherpesvirus 1; Human alphaherpesvirus 1): 8.96 | pIC50 (Human alphaherpesvirus 2; Human alphaherpesvirus 2): 8.96 | pIC50 [2]: 9.85 | pIC50 (Human alphaherpesvirus 3): 9.86

Nc1nc(O)cc(OCCOCP(=O)(O)O)n1
pIC50 (Human alphaherpesvirus 1): 10.60 | pIC50 (Human alphaherpesvirus 1; Human alphaherpesvirus 1): 10.44 | pIC50 (Human alphaherpesvirus 2): 10.48 | pIC50 (Human alphaherpesvirus 2; Human alphaherpesvirus 2): 10.44 | pIC50 [2]: 7.52 | pIC50 (Human betaherpesvirus 5): 9.72 | pIC50 (Vaccinia virus): 9.74

O=C(O)CS(=O)(=O)c1ccc(-c2cccc(CC(=O)Nc3ccccc3)c2)cc1
pIC50 (Human papillomavirus): 6.96

Nc1ncnc2c1ccn2[C@H]1C[C@H](OP(=O)(S)OC[C@H]2O[C@@H](n3cnc4c(N)ncnc43)C[C@@H]2O)[C@@H](CO)O1 (some centres not stated)
pIC50 (Hepatitis B virus): 6.52 | pIC50 (Hepatitis C virus): 6.00

Nc1nc(NC2CC2)c2ncn(CCOCP(=O)(O)O)c2n1
pIC50 (Cowpox virus): 4.55

Nc1nc(N)n(CCOCP(=O)(O)O)c(=O)c1Cc1ccccc1
pIC50 (Human alphaherpesvirus 1; Human alphaherpesvirus 1): 8.92 | pIC50 (Human alphaherpesvirus 2; Human alphaherpesvirus 2): 8.92 | pIC50 [1]: 9.52 | pIC50 [2]: 9.52 | pIC50 (Human betaherpesvirus 5): 9.82 | pIC50 (Vaccinia virus): 8.92 | pIC50 (Human alphaherpesvirus 3): 9.82

O=[N+]([O-])CS(=O)(=O)c1ccc(-c2ccccc2)cc1
pIC50 (Human papillomavirus): 4.19

N#CCc1c(N)nc(N)nc1OCCOCP(=O)(O)O
pIC50 (Human alphaherpesvirus 1; Human alphaherpesvirus 1): 8.92 | pIC50 (Human alphaherpesvirus 2; Human alphaherpesvirus 2): 8.92 | pIC50 [1]: 9.52 | pIC50 [2]: 9.52 | pIC50 (Human betaherpesvirus 5): 9.82 | pIC50 (Vaccinia virus): 8.92 | pIC50 (Human alphaherpesvirus 3): 9.96

C[C@H](NC(=O)c1cccc(-c2ccc(S(=O)(=O)CC(=O)O)cc2)c1)c1ccccc1
pIC50 (Human papillomavirus): 5.77

Nc1nc(NCC(F)(F)F)c2ncn(CCOCP(=O)(O)O)c2n1
pIC50 (Cowpox virus): 3.57 | pIC50 (Vaccinia virus): 4.38

Cc1cc(OCCOCP(=O)(O)O)nc(N)n1
pIC50 [2]: 9.36

N#CCc1c(N)nc(N)n(CCOCP(=O)(O)O)c1=O
pIC50 (Human alphaherpesvirus 1; Human alphaherpesvirus 1): 8.92 | pIC50 (Human alphaherpesvirus 2; Human alphaherpesvirus 2): 8.92 | pIC50 [1]: 9.52 | pIC50 [2]: 9.52 | pIC50 (Human betaherpesvirus 5): 9.82 | pIC50 (Vaccinia virus): 8.92 | pIC50 (Human alphaherpesvirus 3): 10.08

CS(=O)(=O)c1ccc(-c2ccccc2)cc1
pIC50 (Human papillomavirus): 4.10

O=C(O)CS(=O)(=O)c1ccc2ccccc2c1
pIC50 (Human papillomavirus): 4.40

C[C@H](Cn1cnc2c(N)ncnc21)OCP(=O)(O)O [TENOFOVIR ANHYDROUS]
pIC50 (Cowpox virus): 3.52 | pIC50 [1]: 5.14 | pIC50 (Vaccinia virus): 3.52

O=C(O)CS(=O)(=O)c1ccc(-c2cccc(C(=O)NCc3cccc4ccccc34)c2)cc1
pIC50 (Human papillomavirus): 8.37

O=C(O)CS(=O)(=O)c1ccc(Sc2ccccc2)cc1
pIC50 (Human papillomavirus): 4.10

O=C(O)CS(=O)(=O)c1ccc(-c2ccc(C(=O)N3CCCCC3)cc2)cc1
pIC50 (Human papillomavirus): 5.48

Cc1cn([C@@H]2O[C@H](CO)[C@@H](O)[C@@H]2F)c(=O)[nH]c1=O [5-METHYL-2'-FLUOROARAURACIL]
pIC50 (Hepatitis B virus): 6.08

CCCCCCCCCCCCCCCCOCCCOP(=O)(O)CO[C@H](CO)Cn1ccc(N)nc1=O [BRINCIDOFOVIR]
pIC50 (Cowpox virus): 6.22

COc1ccccc1/C(Br)=C(\NC(=O)c1ccc([N+](=O)[O-])cc1)C(=O)N1CCCCC1
pIC50 (Hepatitis B virus): 5.62

Nc1nc(N)n(CCOCP(=O)(O)O)c(=O)c1CC(=O)O
pIC50 (Human alphaherpesvirus 1; Human alphaherpesvirus 1): 8.92 | pIC50 (Human alphaherpesvirus 2; Human alphaherpesvirus 2): 8.92 | pIC50 [1]: 9.52 | pIC50 [2]: 9.52 | pIC50 (Human betaherpesvirus 5): 9.82 | pIC50 (Vaccinia virus): 8.92 | pIC50 (Human alphaherpesvirus 3): 9.82

NC(=O)CS(=O)(=O)c1ccc(-c2ccccc2)cc1
pIC50 (Human papillomavirus): 4.10

CC(C)OC(=O)C(C)NP(=O)(CO[C@H](C)Cn1cnc2c(N)ncnc21)Oc1ccccc1 (some centres not stated)
pIC50 (Cowpox virus): 4.00

Nc1nc(N)c(C2CC2)c(OCCOCP(=O)(O)O)n1
pIC50 (Human alphaherpesvirus 1; Human alphaherpesvirus 1): 8.92 | pIC50 (Human alphaherpesvirus 2; Human alphaherpesvirus 2): 8.92 | pIC50 [1]: 9.52 | pIC50 [2]: 9.52 | pIC50 (Human betaherpesvirus 5): 8.92 | pIC50 (Vaccinia virus): 8.92 | pIC50 (Human alphaherpesvirus 3): 8.92

Nc1ncnc2c1ncn2/C=C1/CC1(F)CO (configuration not stated)
pIC50 (Hepatitis B virus): 4.70 | pIC50 [1]: 4.92 | pIC50 (Human alphaherpesvirus 3): 4.85

Cc1ccccc1CNC(=O)c1cccc(-c2ccc(S(=O)(=O)CC(=O)O)cc2)c1
pIC50 (Human papillomavirus): 7.49

CN(C)c1cc(=O)n(CCOCP(=O)(O)O)c(N)n1
pIC50 [2]: 9.47

O=c1[nH]cnc2c1ncn2[C@H]1CC[C@@H](CO)O1 [DIDANOSINE]
pIC50 (Cowpox virus): 3.37 | pIC50 [1]: 5.40 | pIC50 (Vaccinia virus): 3.37

Cc1cn([C@H]2C=C[C@@H](CO)O2)c(=O)[nH]c1=O [STAVUDINE]
pIC50 (Cowpox virus): 3.35 | pIC50 (Vaccinia virus): 3.35

Nc1nc(Sc2ccccc2)c2ncn(CCOCP(=O)(OCC(F)(F)F)OCC(F)(F)F)c2n1
pIC50 (Hepatitis B virus): 7.30

Nc1nc2c(ncn2/C=C2/CC2(F)CO)c(=O)[nH]1 (configuration not stated)
pIC50 (Hepatitis B virus): 4.70 | pIC50 [1]: 4.00 | pIC50 (Human alphaherpesvirus 3): 4.10

Cc1cccc(CNC(=O)c2cccc(-c3ccc(S(=O)(=O)CC(=O)O)cc3)c2)c1
pIC50 (Human papillomavirus): 7.57

Nc1ccn([C@@H]2CS[C@H](COP(=O)(O)OP(=O)(O)OP(=O)(O)O)O2)c(=O)n1 [LAMIVUDINE TRIPHOSPHATE]
pIC50 (Hepatitis B virus): 8.12

Nc1nc(N)n(CCOCP(=O)(O)O)c(=O)c1-c1ccccc1
pIC50 (Human alphaherpesvirus 1; Human alphaherpesvirus 1): 8.92 | pIC50 (Human alphaherpesvirus 2; Human alphaherpesvirus 2): 8.92 | pIC50 [1]: 9.52 | pIC50 [2]: 9.52 | pIC50 (Human betaherpesvirus 5): 9.82 | pIC50 (Vaccinia virus): 8.92 | pIC50 (Human alphaherpesvirus 3): 9.82

— ChEMBL document CHEMBL1136837, “Unified QSAR approach to antimicrobials. 4. Multi-target QSAR modeling and comparative multi-distance study of the giant components of antiviral drug-drug complex networks” (Bioorg Med Chem, 2009)
